pIC50: −log10 of the molar value. Where two headings read alike, the source gives them in different places.
Assays:
[1] = system: Calf brain tubulin; test: Microtubule assembly and disassembly assay; type: biochemical; conditions: percentage of repolymerisation induced after CaCl2 depolymerisation
Experimental: Calf brain tubulin was prepared by two cycles of assembly-disassembly (Shelanski M. L. Gaskin F. and Cantor C. R., Proc. Natl. Acad. Sci. U.S.A. 70, 765-768, 1973) and stored in liquid nitrogen in MAB (0.1M MES, 2.5 mM EGTA, 0.5 mM MgSO4, 0.1 mM EDTA, 0.1 mM DTT pH 6.4).
All the experiments were carried out on protein stored for less than 4 weeks.
Before each experiment, the tubulin was kept 30 min at 4° C.
Assembly was monitored by the method of Gaskin et al (Gaskin F., Cantor C. R. Shelanski M. L. J. Molec. Biol 89, 737-758, 1974). The cuvette (1 cm path) containing tubulin (1 mg/ml) and 1 mM GTP was shifted to 37° C. and continous turbidity measurements were made at 340 nm on Perkin-Elmer 557 Double Wavelength Double Beam Spectrophotometer equipped with an automatic recorder and a termostatically regulated sample chamber.
After 30 minutes 4 mM CaCl2 was added and depolymerisation was measured for 10 minutes as decreased turbidity. At regular intervals of 15 minutes scalar doses of the tested compounds were added and variations in the turbidity were monitored. Data are espressed as percentage of ripolymerisation induced by the tested compounds.

[2] = system: B16-F10 murine melanoma cells; test: In vitro drug sensitivity assay; type: cell-based; conditions: 72 hrs incubation, cell counting, read-out: IC50 (dose causing 50% inhibition cell growth)
Experimental: Exponentially growing B16-F10 murine melanoma cells were seeded (2×10^4 /ml) in RPMI 1640 medium were supplemented with 10% heat-inactivated fetal calf serum and 2 mM glutamine in 24 well-plates (Costar). Scalar concentrations of tested compounds were added immediately after seeding. The inhibition of cell growth was evaluated by counting cells with a coulter counter after 72 hrs incubation. For each tested compound concentration triplicate cultures were used. The antiproliferative activity of the tested compounds was calculated from dose-response curves and espressed as IC50 (dose causing 50% inhibition cell growth in treated cultures relative to untreated controls).

[3] = TOX determination in tumor-bearing mice; type: in vivo, C57B16 female mice; conditions: day 1, 5, 9
Experimental: (§1) The compound of example 6 was injected intravenously. Both compounds were administered at day 1, 5, 9 after tumor implantation.
TOX: number of mice which died for toxicity.
TOX determination was made when mice died before the control or when significant body weight loss and/or spleen and or/or liver size reduction were observed.

[4] = system: B16 F10 murine melanoma; test: In vivo antitumor activity against B16 F10 murine melanoma; parameters: species or system C57B16 female mice
Experimental: The copolymer-paclitaxel prepared in Example 6 was tested in vivo against B16 F10 murine melanoma in comparison with paclitaxel.
C57B16 female mice were obtained from Charles River Italy.
Animals were 8 to 10 weeks old at the beginning of the experiment.
The murine melanoma B16F10 was used. A suspension of 10^5 tumor cells in 0.2 ml was injected subcutaneously in the flank of mice.
Tumor size was measured with caliper and tumor weight was calculated with the formula: [formula]
as §1
The dose of the polymer-conjugate is referred to the paclitaxel content.

Compound	Tubulin Assembly % ([1]; 0.5 μM) [%]	Tubulin Assembly % ([1]; 5 μM) [%]	pIC50 ([2]; Mus musculus)	pIC50 [2]	further results
CC(=O)OC1C(=O)C2(C)C(O)CC3OCC3(OC(C)=O)C2C(OC(=O)c2ccccc2)C2(O)CC(OC(=O)C(OC(=O)CNC(=O)C(CC(C)C)NC(=O)C(N)Cc3ccccc3)C(NC(=O)c3ccccc3)c3ccccc3)C(C)=C1C2(C)C (stereo not shown) [Example 3, 2'(phenylalanyl-leucyl-glycyl)paclitaxel]	46	86	4.64		
CC(=O)OC1C(=O)C2(C)C(OC(=O)CCN)CC3OCC3(OC(C)=O)C2C(OC(=O)c2ccccc2)C2(O)CC(OC(=O)C(O)C(NC(=O)c3ccccc3)c3ccccc3)C(C)=C1C2(C)C (stereo not shown) [Example 9, 7-(βalanyl)paclitaxel]	79	145	4.33		
CC(=O)O[C@H]1C(=O)[C@@]2(C)[C@H]([C@H](OC(=O)c3ccccc3)[C@]3(O)C[C@H](OC(=O)[C@H](O)[C@@H](NC(=O)c4ccccc4)c4ccccc4)C(C)=C1C3(C)C)[C@]1(OC(C)=O)CO[C@@H]1C[C@@H]2O [Paclitaxel]	41	96	4.41		Tox: number of mice which died for toxicity ([3]; 14.6 mg/Kg intraperitoneally): 0/10; Tox: number of mice which died for toxicity ([3]; 22 mg/Kg intraperitoneally): 0/10; Tox: number of mice which died for toxicity ([3]; 33 mg/Kg intraperitoneally): 1/7; Tumor Inhibition (%) ([4]; 14.6 mg/Kg intraperitoneally, day 1, 5, 9 after tumor implantation): 53%; Tumor Inhibition (%) ([4]; 22 mg/Kg intraperitoneally, day 1, 5, 9): 38%; Tumor Inhibition (%) ([4]; 33 mg/Kg intraperitoneally, day 1, 5, 9): 92%; Appearance of the solution (Cremophor EL 50% and ethanol 50%, diluted with glucose 5% solution): slightly hazy and precipitates formation was observed after short time
Copolymer of 1-methacryloylamino-2-hydroxypropane,1-(methacryloyl-glycyl-phenylanyl-leucyl-glycyl)amino-2hydroxypropane and 2(methacryloyl-glycyl-phenylalanyl-leucyl-glycyl-βalanyl)paclitaxel [Example 6]	0	10		4.29	Tox: number of mice which died for toxicity ([3]; 14.6 mg/Kg (paclitaxel content) intravenously): 0/9; Tox: number of mice which died for toxicity ([3]; 22 mg/Kg (paclitaxel content) intravenously): 0/10; Tumor Inhibition (%) ([4]; 14.6 mg/Kg (paclitaxel content) intravenously, day 1, 5, 9): 77%; Tumor Inhibition (%) ([4]; 22 mg/Kg (paclitaxel content) intravenously, day 1, 5, 9): 79%; Dissolution in glucose 5% (glucose 5%): easily dissolved; Time the resulting solution was clear (solution in glucose 5%): more than 2 hours
Copolymer of 1-methacryloylamino-2-hydroxypropane, 1 (methacryloyl-glycyl-phenylalanyl-leucyl-glycyl)amino-2-hydroxypropane and 2'(methacryloyl-glycyl-phenylalanyl-leucyl-glycyl)paclitaxel [Example 1]	0	15		4.72	
Copolymer of 1-methacryloylamino-2-hydroxypropane, 1-(methacryloyl-glycyl)amino-2-hydroxypropane and 2'(methacryloyl-glycyl-phenylalanyl-leucyl-glycyl)paclitaxel [Example 4]	0	10		4.96	
